Data reported in paper PMC6284057, “Combined Antibacterial Effects of Goat Cathelicidins With Different Mechanisms of Action” (Frontiers in Microbiology, 2018).
Read-outs that look alike come from different tables or passages of the source. No end group written: not given here.

Legend:
[1] = tested on: A. baumannii (XDR CI 2675); assay: microbe, parasite or virus in culture; format: cell-based, Acinetobacter baumannii; settings: read-out: Minimum inhibitory concentration
Method in brief: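 Serial peptide dilutions (0.1% BSA diluent) were challenged with an equal part of mid-log culture in 2× MH broth, ±1.8% NaCl, giving 10^6 CFU/ml. Incubation: 24 h, 37°C, 900 rpm. Reported MIC = median, ≥3 experiments.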

[2] = tested on: E. coli (XDR CI 1057); assay: microbe, parasite or virus in culture; format: cell-based, Escherichia coli
Method: (§1) Antimicrobial assay was performed as described previously ([Panteleev et al., 2017b]). Briefly, mid-log phase bacterial test cultures were diluted with the 2× Mueller-Hinton broth (MH, Sigma) supplemented with 1.8% NaCl or without it so that to reach a final cell concentration of 10^6 CFU/ml. 50 μl aliquots of the obtained bacterial suspension were added to 50 μl of the peptide solutions serially diluted with 0.1% water solution of bovine serum albumin (BSA) in 96-well flat-bottom polystyrene microplates (Eppendorf #0030730011). After incubation at 37°C and 900 rpm for 24 h the minimum inhibitory concentrations (MIC) were determined as the lowest peptide concentrations that prevented growth of a test microorganism observed as visible turbidity. The results were expressed as the median values determined on the basis of at least three independent experiments performed in triplicate.

[3] = tested on: E. coli ML-35p; format: cell-based, Escherichia coli; settings: Mueller-Hinton broth, 10^6 CFU/ml, 0.1% BSA, 37°C, 24 h, median of at least 3 experiments
Method: as §1

[4] = tested on: E. coli (CI 214); format: cell-based, Escherichia coli; settings: CI 214, 24 h
Method: as §1
(§2) The peptides were twofold serially diluted with 0.1% BSA in 96-well microplates (Eppendorf #0030730011). Then, the peptide solutions were mixed in the new test plate crosswise in such a way that the resulting checkerboard contained each combination of the cathelicidins in eight doubly increasing concentrations, with wells containing the highest concentration of each peptide at opposite corners ([Berditsch et al., 2015]). Then, the antimicrobial assay was performed as described in the previous section. […] The results were expressed as the median values determined on the basis of three independent experiments performed in duplicate. Estimation of synergistic effects of different cathelicidins was performed by calculating the fractional inhibitory concentration index (FICI) according to the equation: FICI = [À]/MICÀ + [B]/MICB, where MICÀ and MICB are the MICs of the individual substances, while [A] and [B] are the MICs of A and B when used together. A synergistic effect was defined at a FICI ≤ 0.5.

[5] = tested on: E. coli (XDR CI 1057); format: cell-based, Escherichia coli; settings: for Fractional inhibitory concentration (FICA, FICB): [X]/MICX; for Fractional inhibitory concentration (FICA, FICB) / MIC of the peptide when used together ([A], [B]): 0.9% NaCl; for MIC of the peptide when used together ([A], [B]): in the mix ChMAP-28 + mini-ChBac7.5Nα, other peptide at sub-inhibitory concentration; for MIC of the individual peptide (MICA, MICB): peptide used individually, medium with physiological NaCl (0.9%), median of 3 experiments in duplicate
Method: as §1, §2

[6] = tested on: E. coli BL21 (DE3); format: cell-based, Escherichia coli; settings: BL21, 24 h
Method: as §1, §2

[7] = tested on: E. coli C600; format: cell-based, Escherichia coli
Method: as §1, §2

[8] = tested on: E. coli ML-35p; format: cell-based, Escherichia coli; settings: for Fractional inhibitory concentration (FICA, FICB): [X]/MICX; for Fractional inhibitory concentration (FICA, FICB) / MIC of the peptide when used together ([A], [B]): 0.9% NaCl; for MIC of the peptide when used together ([A], [B]): in the mix ChMAP-28 + mini-ChBac7.5Nα, other peptide at sub-inhibitory concentration; for MIC of the individual peptide (MICA, MICB): peptide used individually, medium with physiological NaCl (0.9%), median of 3 experiments in duplicate
Method: as §1, §2

[9] = tested on: E. cloacae (XDR CI 4172); format: cell-based, Enterobacter cloacae; settings: for Fractional inhibitory concentration (FICA, FICB): [X]/MICX; for Fractional inhibitory concentration (FICA, FICB) / MIC of the peptide when used together ([A], [B]): 0.9% NaCl; for MIC of the peptide when used together ([A], [B]): in the mix ChMAP-28 + mini-ChBac7.5Nα, other peptide at sub-inhibitory concentration; for MIC of the individual peptide (MICA, MICB): peptide used individually, medium with physiological NaCl (0.9%), median of 3 experiments in duplicate
Method: as §1, §2

[10] = tested on: P. aeruginosa PAO1; format: cell-based, Pseudomonas aeruginosa; settings: PAO1, 24 h
Method: as §1
The peptides were twofold serially diluted with 0.1% BSA in 96-well microplates (Eppendorf #0030730011). […] The results were expressed as the median values determined on the basis of three independent experiments performed in duplicate. […]

[11] = tested on: S. aureus 209P; format: cell-based, Staphylococcus aureus; settings: 24 h
Method: as §1, §2

[12] = tested on: E. coli XDR CI 1057 (26 days with mini-ChBac7.5Nα)
Method: as §1, with “After incubation at 37°C and 900 rpm for 24 h the minimum inhibitory concentrations (MIC) were determined as the lowest peptide concentrations that prevented growth of a test microorganism observed as visible turbidity.” left out
(§3) Resistance induction experiments were performed using the previously described method ([Chernysh et al., 2015]) with some modifications. Briefly, on day 1, the overnight culture of wild-type bacteria was diluted with the 2× MH broth containing 1.8% NaCl so that to reach a final cell concentration of 10^6 CFU/ml. 50 μl aliquots of the obtained bacterial suspension were added to 50 μl of the peptide solutions serially diluted with 0.1% water solution of BSA in 96-well microplates (Eppendorf #0030730011). After incubation at 37°C and 900 rpm for 22 ± 2 h, MICs were determined as described above. For each subsequent daily transfer, 5 μl of the inoculum taken from the first well with a sub-inhibitory drug concentration were diluted with 1 ml of the fresh 2× MH broth supplemented with 1.8% NaCl. […] 26 repeated passages in the presence of antimicrobial agents were made for each bacterial strain during the experiment. […] Control serial passages in the absence of the agent were also performed.

[13] = tested on: E. coli XDR CI 1057 (26 days with polymyxin B); settings: Table 4, strain after 26 days with polymyxin B (selection in MH broth with 0.9% NaCl)
Method: as §1, with “After incubation at 37°C and 900 rpm for 24 h the minimum inhibitory concentrations (MIC) were determined as the lowest peptide concentrations that prevented growth of a test microorganism observed as visible turbidity.” left out
as §3

[14] = tested on: E. coli XDR CI 1057 (26 days with synergy combination); settings: Table 4, strain after 26 days with synergy combination (selection in MH broth with 0.9% NaCl)
Method: as §1, with “After incubation at 37°C and 900 rpm for 24 h the minimum inhibitory concentrations (MIC) were determined as the lowest peptide concentrations that prevented growth of a test microorganism observed as visible turbidity.” left out
as §3

[15] = tested on: E. coli XDR CI 1057 (26 days without antimicrobial agent)
Method: as §1, with “After incubation at 37°C and 900 rpm for 24 h the minimum inhibitory concentrations (MIC) were determined as the lowest peptide concentrations that prevented growth of a test microorganism observed as visible turbidity.” left out
as §3

[16] = 0.9% NaCl, Mueller-Hinton broth, 10^6 CFU/ml, 0.1% BSA, 37°C, 24 h, median of at least 3 experiments
[17] = Table S2, XDR clinical isolate, NaCl content of medium not stated
[18] = Without NaCl, Mueller-Hinton broth, 10^6 CFU/ml, 0.1% BSA, 37°C, 24 h, median of at least 3 experiments
[19] = Table 4, strain at 0 days of selection experiment (selection in MH broth with 0.9% NaCl)
[20] = Table 4, strain after 26 days with mini-ChBac7.5Nα (selection in MH broth with 0.9% NaCl)
[21] = With 0.9% NaCl, resistant strain, 26 days with mini-ChBac7.5Nα
[22] = Without salt, resistant strain, 26 days with mini-ChBac7.5Nα
[23] = Table 4, strain after 26 days without antimicrobial agent (selection in MH broth with 0.9% NaCl)
[24] = With 0.9% NaCl, control strain, 26 days without antimicrobial agent
[25] = Without salt, control strain, 26 days without antimicrobial agent

## GRFKRFRKKLKRLWHKVGPFVGPILHY [ChMAP-28]
[1]; [16]
  MIC: 0.25 µM
[1]; [17]
  MIC: 0.25 µM
[1]; [18]
  MIC: 0.03 µM
[2]; [19]
  Minimum inhibitory concentration: 0.125 µM
[2]; [17]
  Minimum inhibitory concentration: 0.125 µM
[3]; 0.9% NaCl
  Minimum inhibitory concentration: 0.06 µM
[3]; Without NaCl
  Minimum inhibitory concentration: 0.06 µM
[4]
  Fractional inhibitory concentration (FICA, FICB): 0.25
  MIC of the individual peptide (MICA, MICB): 0.06 µM
[5]
  Fractional inhibitory concentration (FICA, FICB): 0.063
  MIC of the peptide when used together ([A], [B]): 0.008 µM
  MIC of the individual peptide (MICA, MICB): 0.125 µM
[6]
  Fractional inhibitory concentration (FICA, FICB): 0.25
  MIC of the individual peptide (MICA, MICB): 0.06 µM
[7]; [X]/MICX, 0.9% NaCl
  Fractional inhibitory concentration (FICA, FICB): 0.125-0.25
[7]; peptide used individually, medium with physiological NaCl (0.9%), median of 3 experiments in duplicate
  MIC of the individual peptide (MICA, MICB): 0.125 µM
[8]
  Fractional inhibitory concentration (FICA, FICB): 0.125
  MIC of the peptide when used together ([A], [B]): 0.008 µM
  MIC of the individual peptide (MICA, MICB): 0.06 µM
[9]
  Fractional inhibitory concentration (FICA, FICB): 0.125
  MIC of the peptide when used together ([A], [B]): 0.03 µM
  MIC of the individual peptide (MICA, MICB): 0.25 µM
[10]
  Fractional inhibitory concentration (FICA, FICB): 0.5
[11]
  Fractional inhibitory concentration (FICA, FICB): 0.063
  MIC of the individual peptide (MICA, MICB): 0.5 µM
[12]; [20]
  Minimum inhibitory concentration: 0.125 µM
[12]; [21]
  Minimum inhibitory concentration: 0.125 µM
[12]; [22]
  Minimum inhibitory concentration: 0.125 µM
[13]
  Minimum inhibitory concentration: 0.25 µM
[14]
  Minimum inhibitory concentration: 0.125 µM
[15]; [23]
  Minimum inhibitory concentration: 0.125 µM
[15]; [24]
  Minimum inhibitory concentration: 0.125 µM
[15]; [25]
  Minimum inhibitory concentration: 0.125 µM

## RRLRPRRPRLPRPRPRPRPRPR [mini-ChBac7.5Nα]
[1]; [16]
  MIC: >32 µM
[1]; [18]
  MIC: 2 µM
[2]; [19]
  Minimum inhibitory concentration: 8 µM
[3]; 0.9% NaCl
  Minimum inhibitory concentration: 4 µM
[3]; Without NaCl
  Minimum inhibitory concentration: 0.5 µM
[4]
  MIC of the individual peptide (MICA, MICB): >64 µM
[5]
  Fractional inhibitory concentration (FICA, FICB): 0.25
  MIC of the peptide when used together ([A], [B]): 2 µM
  MIC of the individual peptide (MICA, MICB): 8 µM
[6]
  Fractional inhibitory concentration (FICA, FICB): 0.125
  MIC of the individual peptide (MICA, MICB): 8 µM
[7]; C600, 24 h
  Fractional inhibitory concentration (FICA, FICB): 0.25
  MIC of the individual peptide (MICA, MICB): 4 µM
[8]
  Fractional inhibitory concentration (FICA, FICB): 0.25
  MIC of the peptide when used together ([A], [B]): 1 µM
  MIC of the individual peptide (MICA, MICB): 4 µM
[9]
  Fractional inhibitory concentration (FICA, FICB): 0.125
  MIC of the peptide when used together ([A], [B]): 0.5 µM
  MIC of the individual peptide (MICA, MICB): 4 µM
[10]
  MIC of the individual peptide (MICA, MICB): >32 µM
[11]
  Fractional inhibitory concentration (FICA, FICB): 0.125
  MIC of the individual peptide (MICA, MICB): 16 µM
[12]; [20]
  Minimum inhibitory concentration: >128 µM
[12]; [21]
  Minimum inhibitory concentration: >256 µM
[12]; [22]
  Minimum inhibitory concentration: 1 µM
[13]
  Minimum inhibitory concentration: 64 µM
[14]
  Minimum inhibitory concentration: 8 µM
[15]; [23]
  Minimum inhibitory concentration: 8 µM
[15]; [24]
  Minimum inhibitory concentration: 8 µM
[15]; [25]
  Minimum inhibitory concentration: 1 µM
